Assays:
[1] = biological target: Fibroblast growth factor receptor 2 (Homo sapiens) (UniProt P21802); conditions: Compound concentration 1000.0 nM
[2] = biological target: Serine/threonine-protein kinase MRCK alpha (Homo sapiens) (UniProt Q5VT25); conditions: Compound concentration 1000.0 nM
[3] = biological target: Ribosomal protein S6 kinase alpha-5 (Homo sapiens) (UniProt O75582); conditions: Compound concentration 1000.0 nM
[4] = biological target: MAP kinase-activated protein kinase 2 (Homo sapiens) (UniProt P49137); conditions: Compound concentration 1000.0 nM
[5] = biological target: Ribosomal protein S6 kinase alpha-3 (Homo sapiens) (UniProt P51812); conditions: Compound concentration 1000.0 nM
[6] = biological target: Receptor tyrosine-protein kinase erbB-2 (Homo sapiens) (UniProt P04626); conditions: Compound concentration 1000.0 nM
[7] = biological target: Proto-oncogene tyrosine-protein kinase receptor Ret (Homo sapiens) (UniProt P07949); conditions: Compound concentration 1000.0 nM
[8] = biological target: Insulin receptor (Homo sapiens) (UniProt P06213); conditions: Compound concentration 1000.0 nM
[9] = biological target: Serine/threonine-protein kinase PLK3 (Homo sapiens) (UniProt Q9H4B4); conditions: Compound concentration 1000.0 nM
[10] = tested on: Tyrosine-protein kinase ABL1 (Homo sapiens), P00519 [Q252H]; conditions: Compound concentration 1000.0 nM
[11] = biological target: Serine/threonine-protein kinase MRCK gamma (Homo sapiens) (UniProt Q6DT37); conditions: Compound concentration 1000.0 nM
Serine/threonine-protein kinase MRCK gamma (Homo sapiens), sequence (Q6DT37 whole entry): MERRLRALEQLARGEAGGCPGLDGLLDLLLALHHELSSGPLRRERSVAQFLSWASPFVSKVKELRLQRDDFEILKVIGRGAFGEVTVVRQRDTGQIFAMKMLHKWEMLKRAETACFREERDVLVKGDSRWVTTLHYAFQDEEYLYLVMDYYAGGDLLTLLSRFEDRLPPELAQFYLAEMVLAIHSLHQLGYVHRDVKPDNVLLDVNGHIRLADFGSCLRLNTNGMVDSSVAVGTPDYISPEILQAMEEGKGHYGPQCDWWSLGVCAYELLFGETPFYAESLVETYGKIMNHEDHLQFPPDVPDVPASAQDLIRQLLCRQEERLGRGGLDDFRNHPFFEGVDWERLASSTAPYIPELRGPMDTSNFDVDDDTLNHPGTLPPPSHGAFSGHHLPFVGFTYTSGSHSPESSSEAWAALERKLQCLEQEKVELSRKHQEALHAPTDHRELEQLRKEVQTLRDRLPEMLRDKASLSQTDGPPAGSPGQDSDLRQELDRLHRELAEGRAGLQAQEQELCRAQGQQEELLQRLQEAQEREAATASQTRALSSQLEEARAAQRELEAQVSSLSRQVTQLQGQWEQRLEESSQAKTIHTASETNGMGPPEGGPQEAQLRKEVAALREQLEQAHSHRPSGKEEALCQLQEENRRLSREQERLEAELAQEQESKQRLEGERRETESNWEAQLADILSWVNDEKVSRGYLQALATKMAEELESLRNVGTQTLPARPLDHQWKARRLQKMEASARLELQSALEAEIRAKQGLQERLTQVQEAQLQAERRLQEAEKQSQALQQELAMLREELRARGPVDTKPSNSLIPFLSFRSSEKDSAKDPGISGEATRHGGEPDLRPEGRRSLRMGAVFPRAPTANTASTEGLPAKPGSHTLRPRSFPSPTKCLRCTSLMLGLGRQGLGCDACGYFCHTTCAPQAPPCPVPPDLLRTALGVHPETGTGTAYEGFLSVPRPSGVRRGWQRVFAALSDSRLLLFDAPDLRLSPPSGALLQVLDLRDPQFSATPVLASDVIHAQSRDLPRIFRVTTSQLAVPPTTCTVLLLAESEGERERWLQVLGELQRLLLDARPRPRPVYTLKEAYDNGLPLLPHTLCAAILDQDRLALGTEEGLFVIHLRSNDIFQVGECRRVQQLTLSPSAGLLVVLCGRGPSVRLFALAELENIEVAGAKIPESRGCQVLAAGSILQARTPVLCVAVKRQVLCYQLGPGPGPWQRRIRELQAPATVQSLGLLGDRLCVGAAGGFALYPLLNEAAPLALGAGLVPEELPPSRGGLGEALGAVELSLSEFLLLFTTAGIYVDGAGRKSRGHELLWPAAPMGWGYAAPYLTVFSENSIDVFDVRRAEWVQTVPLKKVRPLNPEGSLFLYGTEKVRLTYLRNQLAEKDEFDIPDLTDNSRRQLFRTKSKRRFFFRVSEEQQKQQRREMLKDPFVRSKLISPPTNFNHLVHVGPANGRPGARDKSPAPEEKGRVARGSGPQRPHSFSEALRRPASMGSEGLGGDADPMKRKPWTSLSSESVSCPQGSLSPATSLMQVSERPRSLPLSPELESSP

[12] = biological target: Tyrosine-protein kinase Fgr (Homo sapiens) (UniProt P09769); conditions: Compound concentration 1000.0 nM
[13] = biological target: Non-receptor tyrosine-protein kinase TNK1 (Homo sapiens) (UniProt Q13470); conditions: Compound concentration 1000.0 nM
[14] = biological target: Cytoplasmic tyrosine-protein kinase BMX (Homo sapiens) (UniProt P51813); conditions: Compound concentration 1000.0 nM
Cytoplasmic tyrosine-protein kinase BMX (Homo sapiens), sequence (P51813 whole entry): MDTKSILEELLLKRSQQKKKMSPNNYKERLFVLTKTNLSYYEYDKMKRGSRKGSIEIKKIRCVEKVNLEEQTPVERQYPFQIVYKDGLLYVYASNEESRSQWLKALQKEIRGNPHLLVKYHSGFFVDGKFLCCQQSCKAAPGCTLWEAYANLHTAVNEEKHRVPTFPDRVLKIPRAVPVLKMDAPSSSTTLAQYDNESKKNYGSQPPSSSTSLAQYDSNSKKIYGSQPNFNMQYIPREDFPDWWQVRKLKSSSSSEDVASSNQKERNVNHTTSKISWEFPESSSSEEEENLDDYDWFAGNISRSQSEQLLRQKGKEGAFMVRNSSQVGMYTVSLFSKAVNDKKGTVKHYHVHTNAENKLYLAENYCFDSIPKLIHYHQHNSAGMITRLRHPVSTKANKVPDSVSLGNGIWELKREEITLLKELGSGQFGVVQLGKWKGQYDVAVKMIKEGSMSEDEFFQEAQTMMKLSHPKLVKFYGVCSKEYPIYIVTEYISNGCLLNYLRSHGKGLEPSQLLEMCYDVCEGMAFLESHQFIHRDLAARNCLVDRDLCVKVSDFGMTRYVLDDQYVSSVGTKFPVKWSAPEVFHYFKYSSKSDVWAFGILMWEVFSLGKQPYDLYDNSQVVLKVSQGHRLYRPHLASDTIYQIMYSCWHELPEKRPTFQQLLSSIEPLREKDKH

[15] = tested on: Tyrosine-protein kinase ABL1 (Homo sapiens), P00519 [H396P]; conditions: Compound concentration 1000.0 nM
[16] = biological target: Inhibitor of nuclear factor kappa-B kinase subunit alpha (Homo sapiens) (UniProt O15111); conditions: Compound concentration 1000.0 nM
[17] = biological target: 5-hydroxytryptamine receptor 1A (Homo sapiens) (UniProt P08908); conditions: Compound concentration 10.0 uM
[18] = biological target: Bone morphogenetic protein receptor type-1B (Homo sapiens) (UniProt O00238); conditions: Compound concentration 1000.0 nM
[19] = biological target: Dual specificity tyrosine-phosphorylation-regulated kinase 2 (Homo sapiens) (UniProt Q92630); conditions: Compound concentration 1000.0 nM
[20] = biological target: Mitogen-activated protein kinase kinase kinase 10 (Homo sapiens) (UniProt Q02779); conditions: Compound concentration 1000.0 nM
[21] = tested on: Receptor-type tyrosine-protein kinase FLT3 (Homo sapiens), P36888 [UNDEFINED MUTATION]; conditions: Compound concentration 1000.0 nM
[22] = biological target: 5-hydroxytryptamine receptor 7 (Homo sapiens) (UniProt P34969); conditions: Compound concentration 10.0 uM
[23] = biological target: SNF-related serine/threonine-protein kinase (Homo sapiens) (UniProt Q9NRH2); conditions: Compound concentration 1000.0 nM
[24] = biological target: Cyclin-dependent kinase 15 (Homo sapiens) (UniProt Q96Q40); conditions: Compound concentration 1000.0 nM
[25] = biological target: D(1A) dopamine receptor (Homo sapiens) (UniProt P21728); conditions: Compound concentration 10.0 uM
[26] = biological target: Cyclin-dependent kinase-like 5 (Homo sapiens) (UniProt O76039); conditions: Compound concentration 1000.0 nM
[27] = biological target: Ankyrin repeat and protein kinase domain-containing protein 1 (Homo sapiens) (UniProt Q8NFD2); conditions: Compound concentration 1000.0 nM
Ankyrin repeat and protein kinase domain-containing protein 1 (Homo sapiens), sequence (Q8NFD2 whole entry, the tested form may be a part): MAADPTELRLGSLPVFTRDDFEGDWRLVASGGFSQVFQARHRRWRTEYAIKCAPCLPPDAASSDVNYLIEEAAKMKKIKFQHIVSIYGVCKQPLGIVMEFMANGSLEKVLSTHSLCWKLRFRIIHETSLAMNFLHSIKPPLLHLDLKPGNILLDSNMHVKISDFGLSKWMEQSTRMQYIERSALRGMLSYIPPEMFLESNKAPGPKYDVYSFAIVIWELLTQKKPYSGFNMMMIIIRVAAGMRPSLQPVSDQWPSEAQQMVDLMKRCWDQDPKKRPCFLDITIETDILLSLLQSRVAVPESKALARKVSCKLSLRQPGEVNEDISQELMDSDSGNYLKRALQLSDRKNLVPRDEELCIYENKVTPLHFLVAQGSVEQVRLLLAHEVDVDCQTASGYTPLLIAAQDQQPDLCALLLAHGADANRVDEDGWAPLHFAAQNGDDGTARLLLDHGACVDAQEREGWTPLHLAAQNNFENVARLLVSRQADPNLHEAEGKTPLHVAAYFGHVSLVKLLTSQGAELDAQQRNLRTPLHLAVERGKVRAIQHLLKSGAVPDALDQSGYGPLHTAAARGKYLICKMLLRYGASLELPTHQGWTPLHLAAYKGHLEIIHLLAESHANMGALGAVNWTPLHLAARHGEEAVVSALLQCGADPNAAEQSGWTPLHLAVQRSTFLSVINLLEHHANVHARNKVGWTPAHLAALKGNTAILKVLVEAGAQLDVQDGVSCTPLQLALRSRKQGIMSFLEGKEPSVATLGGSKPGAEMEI

[28] = biological target: Tyrosine-protein kinase JAK1 (Homo sapiens) (UniProt P23458); conditions: Compound concentration 1000.0 nM
[29] = biological target: Receptor tyrosine-protein kinase erbB-4 (Homo sapiens) (UniProt Q15303); conditions: Compound concentration 1000.0 nM
[30] = biological target: Maternal embryonic leucine zipper kinase (Homo sapiens) (UniProt Q14680); conditions: Compound concentration 1000.0 nM
[31] = biological target: Platelet-derived growth factor receptor beta (Homo sapiens) (UniProt P09619); conditions: Compound concentration 1000.0 nM
Platelet-derived growth factor receptor beta (Homo sapiens), sequence (P09619 whole entry): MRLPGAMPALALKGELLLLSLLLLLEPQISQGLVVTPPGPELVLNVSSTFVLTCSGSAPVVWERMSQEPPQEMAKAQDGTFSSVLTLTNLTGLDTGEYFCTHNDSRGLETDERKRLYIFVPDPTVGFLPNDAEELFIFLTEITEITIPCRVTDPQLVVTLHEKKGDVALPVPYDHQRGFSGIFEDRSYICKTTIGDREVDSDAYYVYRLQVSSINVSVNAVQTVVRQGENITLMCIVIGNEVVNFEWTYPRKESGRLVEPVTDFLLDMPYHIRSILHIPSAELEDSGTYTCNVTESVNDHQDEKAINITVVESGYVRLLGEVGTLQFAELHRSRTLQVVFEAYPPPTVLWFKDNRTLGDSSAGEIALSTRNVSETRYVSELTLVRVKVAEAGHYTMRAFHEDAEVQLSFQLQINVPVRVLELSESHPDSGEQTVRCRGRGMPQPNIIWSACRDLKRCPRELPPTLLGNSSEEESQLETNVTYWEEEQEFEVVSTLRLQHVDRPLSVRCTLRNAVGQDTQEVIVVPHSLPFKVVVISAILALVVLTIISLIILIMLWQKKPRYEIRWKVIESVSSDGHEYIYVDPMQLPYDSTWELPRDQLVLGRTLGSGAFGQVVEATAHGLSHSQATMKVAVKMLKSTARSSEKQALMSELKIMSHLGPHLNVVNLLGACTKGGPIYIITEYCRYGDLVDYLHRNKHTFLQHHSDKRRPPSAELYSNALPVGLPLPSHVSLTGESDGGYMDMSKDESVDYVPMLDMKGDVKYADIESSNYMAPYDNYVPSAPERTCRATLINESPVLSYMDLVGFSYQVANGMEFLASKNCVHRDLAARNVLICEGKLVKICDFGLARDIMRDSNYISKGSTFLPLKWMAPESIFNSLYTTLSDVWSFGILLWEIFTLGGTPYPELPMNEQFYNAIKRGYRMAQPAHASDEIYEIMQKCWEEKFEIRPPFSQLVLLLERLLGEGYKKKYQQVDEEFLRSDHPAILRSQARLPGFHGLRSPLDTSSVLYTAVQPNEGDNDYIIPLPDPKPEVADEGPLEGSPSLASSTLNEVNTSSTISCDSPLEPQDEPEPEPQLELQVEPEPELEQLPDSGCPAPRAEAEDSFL

[32] = biological target: Cyclin-dependent kinase 19 (Homo sapiens) (UniProt Q9BWU1); conditions: Compound concentration 1000.0 nM
Cyclin-dependent kinase 19 (Homo sapiens), sequence (Q9BWU1 whole entry): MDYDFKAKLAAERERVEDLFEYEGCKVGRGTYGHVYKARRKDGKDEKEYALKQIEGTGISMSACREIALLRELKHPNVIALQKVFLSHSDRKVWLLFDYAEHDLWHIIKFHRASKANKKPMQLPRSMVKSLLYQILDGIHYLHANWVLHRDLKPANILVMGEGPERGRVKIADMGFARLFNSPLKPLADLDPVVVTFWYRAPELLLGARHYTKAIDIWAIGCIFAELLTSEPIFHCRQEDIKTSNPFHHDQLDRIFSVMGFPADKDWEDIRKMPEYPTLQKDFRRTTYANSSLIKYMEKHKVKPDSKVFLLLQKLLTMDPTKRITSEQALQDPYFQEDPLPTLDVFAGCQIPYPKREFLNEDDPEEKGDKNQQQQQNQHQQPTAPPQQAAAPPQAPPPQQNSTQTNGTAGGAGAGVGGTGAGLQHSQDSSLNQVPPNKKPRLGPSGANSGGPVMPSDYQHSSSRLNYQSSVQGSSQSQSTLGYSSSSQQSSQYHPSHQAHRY

[33] = biological target: Serine/threonine-protein kinase MARK2 (Homo sapiens) (UniProt Q7KZI7); conditions: Compound concentration 1000.0 nM
[34] = biological target: Activin receptor type-2A (Homo sapiens) (UniProt P27037); conditions: Compound concentration 1000.0 nM
[35] = biological target: GABA-A receptor; anion channel (Rattus norvegicus) (UniProt O09028+P15431+P18506+P18508+P19969+P20236+P23574+P23576+P28471+P28473+P30191+P62813+P63079+P63138+Q91ZM7+Q9ES14); conditions: Compound concentration 10.0 uM
[36] = biological target: Mitogen-activated protein kinase 11 (Homo sapiens) (UniProt Q15759); conditions: Compound concentration 1000.0 nM
Mitogen-activated protein kinase 11 (Homo sapiens), sequence (Q15759 whole entry): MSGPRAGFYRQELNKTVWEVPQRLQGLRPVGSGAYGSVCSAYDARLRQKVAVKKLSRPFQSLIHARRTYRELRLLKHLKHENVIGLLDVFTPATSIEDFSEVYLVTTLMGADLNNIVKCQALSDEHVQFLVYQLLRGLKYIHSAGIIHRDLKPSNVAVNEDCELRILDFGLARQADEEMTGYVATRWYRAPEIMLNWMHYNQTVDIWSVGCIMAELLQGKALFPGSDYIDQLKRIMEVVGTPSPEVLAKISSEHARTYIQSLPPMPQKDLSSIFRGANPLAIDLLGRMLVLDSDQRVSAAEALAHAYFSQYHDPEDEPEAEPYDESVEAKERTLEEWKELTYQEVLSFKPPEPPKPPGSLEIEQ

[37] = biological target: Beta-adrenergic receptor kinase 1 (Homo sapiens) (UniProt P25098); conditions: Compound concentration 1000.0 nM
[38] = biological target: Serine/threonine-protein kinase ULK2 (Homo sapiens) (UniProt Q8IYT8); conditions: Compound concentration 1000.0 nM
[39] = biological target: Ephrin type-A receptor 8 (Homo sapiens) (UniProt P29322); conditions: Compound concentration 1000.0 nM
[40] = biological target: Serine/threonine-protein kinase SBK1 (Homo sapiens) (UniProt Q52WX2); conditions: Compound concentration 1000.0 nM
[41] = biological target: Mitogen-activated protein kinase kinase kinase 6 (Homo sapiens) (UniProt O95382); conditions: Compound concentration 1000.0 nM
[42] = biological target: MAP/microtubule affinity-regulating kinase 4 (Homo sapiens) (UniProt Q96L34); conditions: Compound concentration 1000.0 nM
[43] = biological target: Receptor-type tyrosine-protein kinase FLT3 (Homo sapiens) (UniProt P36888); conditions: Compound concentration 1000.0 nM
[44] = biological target: 5-hydroxytryptamine receptor 2B (Homo sapiens) (UniProt P41595); conditions: Compound concentration 10.0 uM

CC(=O)C1=C(C)N(c2cccc(C(F)(F)F)c2)C(=O)N[C@@H]1c1ccc(C#N)nc1 [BAY-678]
inactive: residual activity [1] 100% | residual activity [2] 100% | residual activity [3] 83.4% | residual activity [4] 82.6% | residual activity [5] 100% | residual activity [6] 95.6% | residual activity [7] 92.4% | residual activity [8] 89.3% | residual activity [9] 84.2% | residual activity [10] 100% | residual activity [11] 79.3% | residual activity [12] 86.7% | residual activity [13] 62.1% | residual activity [14] 97.4% | residual activity [15] 87.1% | residual activity [16] 100% | inhibition [17] 50% | residual activity [18] 74.2% | residual activity [19] 100% | residual activity [20] 92.1% | residual activity [21] 87.4% | inhibition [22] 3.93% | residual activity [23] 100% | residual activity [24] 100% | inhibition [25] -8.4% | residual activity [26] 100% | residual activity [27] 100% | residual activity [28] 85.9% | residual activity [29] 90.8% | residual activity [30] 88.2% | residual activity [31] 94% | residual activity [32] 96.9% | residual activity [33] 100% | residual activity [34] 85.7% | inhibition [35] 11.9% | residual activity [36] 100% | residual activity [37] 89% | residual activity [38] 100% | residual activity [39] 100% | residual activity [40] 100% | residual activity [41] 91.2% | residual activity [42] 100% | residual activity [43] 100% | inhibition [44] 6.06%
